# Where two headings read alike, the source gives them in different places.
# Settings: amide bond, 17.0 h
smiles,measurement,setting,value
COc1ccc(C[C@H]2C(=O)O[C@H](C)[C@H](NC(=O)OC(C)(C)C)C(=O)N[C@H](C(C)C)[C@@H](O[Si](C(C)C)(C(C)C)C(C)C)CC(=O)O[C@@H](C(C)C)C(=O)N[C@@H](CC(C)C)C(=O)N3CCC[C@H]3C(=O)N2C)cc1,"ring closure, yield of all isomers","from COc1ccc(C[C@@H](C(=O)O[C@H](C)[C@H](NC(=O)OC(C)(C)C)C(=O)O)N(C)C(=O)[C@@H]2CCCN2C(=O)[C@H](CC(C)C)NC(=O)[C@@H](OC(=O)C[C@H](O[Si](C(C)C)(C(C)C)C(C)C)[C@H](N)C(C)C)C(C)C)cc1, HATU/DIEA, DMF, 10.0 mM, 25.0 °C, 3 steps",19%
COc1ccc(C[C@H]2C(=O)OC[C@H](NC(=O)OC(C)(C)C)C(=O)N[C@H](C(C)C)[C@@H](O)CC(=O)O[C@@H](C(C)C)C(=O)N[C@@H](CC(C)C)C(=O)N3CCC[C@H]3C(=O)N2C)cc1,"ring closure, yield of all isomers","from CN[C@@H](Cc1ccc(OC)cc1)C(=O)OC[C@H](NC(=O)OC(C)(C)C)C(=O)N[C@H](C(C)C)[C@@H](O)CC(=O)O[C@H](C(=O)N[C@@H](CC(C)C)C(=O)N1CCC[C@H]1C(=O)O)C(C)C, HATU/NMM, CH3CN, 5.7 mM, 25.0 °C",89%
CC(C)C[C@@H]1NC(=O)[C@H](C(C)C)OC(=O)C[C@H](O)[C@@H](C(C)C)NC(=O)[C@@H](NC(=O)OC(C)(C)C)[C@@H](C)OC(=O)[C@H](Cc2ccc3ccccc3c2)N(C)C(=O)[C@@H]2CCCN2C1=O,"ring closure, yield of all isomers","from CN[C@@H](Cc1ccc2ccccc2c1)C(=O)O[C@H](C)[C@H](NC(=O)OC(C)(C)C)C(=O)N[C@H](C(C)C)[C@@H](O)CC(=O)O[C@H](C(=O)N[C@@H](CC(C)C)C(=O)N1CCC[C@H]1C(=O)O)C(C)C, HATU, CH3CN, 5.0 mM, 0.0 °C",65%
